According to patent US5470877A, “Uses of perillic acid methyl ester” (Wisconsin Alumni Research Foundation, priority 1994, dated 1995):
“Also recorded” adds a separate entry of the source.

Legend:
21-26 kDa proteins [1] = test: Protein isoprenylation inhibition in NIH3T3 cells (SDS-PAGE fluorography); format: cell-based, mouse
Method: "Isoprenylation" is the addition of a multiple of the 5 carbon isoprene unit to a protein. Our experiments in isoprenylation are reported at Crowell, et al. 1991, J. Biol. Chem. 266:17679-17685. To test whether a specific monoterpene affects isoprenylation of proteins in cells, […] were incubated with a radioactive isoprene precursor and 0-5 mM of the test monoterpene and then subjected to SDS-PAGE. Because they carried a radioactive label, isoprenylated proteins were visualized by fluorography. As a control, cells were incubated without the monoterpene.
Cells were harvested after trypsin treatment, washed twice with phosphate-buffered saline, suspended in electrophoresis sample buffer (Laemmli, U.K., 1970, Nature 227:680-685), and either analyzed immediately or stored at -20° C. Whole cell extracts were analyzed by SDS-PAGE on 16-cm×18-cm×0.75-mm gels by the method of Laemmli (supra). The acrylamide concentrations were 5% for the stacking gel and 12% for the separating gel. Gels were stained with Coomassie Brilliant Blue, equilibrated for 20 min in Amplify (Amersham Corp.) fluorographic reagent, dried under vacuum at 65° C., and exposed to preflashed Kodak X-Omat AR film as described by Laskey and Mills (1975, Eur. J. Biochem, 56:335-341). Some fluorograms were analyzed further by densitometry. Where indicated, gels were sliced, dissolved at 50° C. for 3 hours in 0.5 ml of water+0.5 ml of Solvable (Amersham), and then analyzed by scintillation spectrometry in 10 ml of Atom light (Amersham) mixture. Protein content was measured by the method of Lowry, et al. (1951, J. Biol. Chem. 193:265-275).
FIG. 1 depicts the structures of certain monoterpenes.
The degree of isoprenylation was evaluated by the amount of labeled protein present in the 21-26 kDa range, as evidenced by fluorography.

[2] = Plasma metabolite identification and quantitation in rats; format: in vivo, Wistar-Furth rat; conditions: for DHPA (% total) / DHPAME (% total) / LIM/POH (% total) / PA (% total) / PAME (% total) / mM LIM/POH: plasma
Method: Control animals received oil alone. At the chosen time points, rats were anesthetized with ether and blood was collected into heparinized tubes (Heparin (Sigma, Grade II), at 20 mg/ml in 0.9% saline). Plasma was removed following centrifugation and stored at -20° C.
For quantitation of chronic plasma metabolite levels of perillyl alcohol, female WF rats were housed individually and fed fresh diet daily. The afternoon before blood collection, all rats were given approximately 20 grams of the appropriate diet and allowed to eat ad. libitum for 18 hours. Food consumption data was determined the next morning and the rats were bled within 2 hours following food removal.
Briefly, 5 μl of a 10 mM solution of perillaldehyde was added to 50 μl plasma as an internal standard for quantitation. The plasma was mixed with an equal volume of n-butanol:acetonitrile (1:1, v/v), after which another volume of saturated potassium phosphate was added. After vortexing, the samples were centrifuged and the organic layer removed from the top.
Plasma extracts were analyzed using a Hewlett-Packard 5891 gas chromatograph equipped with a flame-ionization detector or a Hewlett-Packard 5890 chromatograph equipped with a 5971A mass-selective detector, both with 30 m Supelco SPB-5 columns. The temperature program was 90° C. for 4 minutes, increasing by 10° C./minute, followed by 15 minutes at 275° C. The split ratio was 1:10 and the linear velocity was 1.1 ml/minute. Standard curves were generated by adding 5 μl rat plasma. Standards were then extracted and analyzed by capillary gas chromatography. The ratio of the terpene peak area/perillaldehyde peak area versus the concentration of terpene in the sample was plotted.

21-26 kDa proteins [3] = test: Protein isoprenylation inhibition in M600B human mammary epithelial cells; conditions: 3 mM
Method: To test whether a specific monoterpene affects isoprenylation of proteins in cells, cell extracts were incubated with a radioactive isoprene precursor and 0-5 mM of the test monoterpene and then subjected to SDS-PAGE. Because they carried a radioactive label, isoprenylated proteins were visualized by fluorography. As a control, cells were incubated without the monoterpene.
For both isoprenylation and cell growth assays, the monoterpenes were mixed with prewarmed (37° C.) medium containing 10% calf serum, and then the monoterpene-containing medium was added to cells. The relative effects of various monoterpenes on protein isoprenylation were compared by comparison of the relative intensity of bands on fluorograms from [^14 C]-mevalonate-labelled cells treated with each monoterpene.
Samples from each cell line were then analyzed on the same gel.

M600B cells = test: M600B cell growth inhibition (FIG. 4); format: cell-based; conditions: M600B (human) cells
Method: NIH3T3 (mouse embryo) cells were obtained from the American Type Culture Collection and were grown in Dulbecco's modified Eagle's medium supplemented with 10% calf serum. M600B immortalized human mammary epithelial cells (Stampfer, M.R., 1985, J. Tissue Culture Methods 9:107-115) were, obtained from Dr. Martha Stampfer and were grown in supplemented HCDB 170 medium (Hammond, et al. (1984) Proc. Natl. Acad. Sci U.S.A. 81:5435-5439), as described previously (Stampfer, et al. (1985) Proc. Natl. Acad. Sci U.S.A. 82:2394-2398; Eldridge, et al. (1989) Cancer Res. 49:4326-4331).
All cells were maintained in 100-mm dishes at 37° C. in a humidified 5% CO2 atmosphere. Viable cells were distinguished from nonviable cells by counting azure II/methylene blue-stained colonies 10 days after the cells were plated at a density of 100 cells per dish. Trypan blue exclusion was measured by incubating cells for 1 min with one drop of trypan blue per 10 ml of cells. Viable (colorless) and nonviable (blue) cells were then counted on a hemocytometer.
We examined the effect of several of the terpenes on certain types of cell growth. […] Additionally, growth of HT29 (human colon adenocarcinoma) cells was inhibited by 80% by 1 mM perillyl alcohol.

[4] = Tolerability in nude mice (National Cancer Institute); format: in vivo
Method: In an extension of our work, the National Cancer Institute has studied the effect of perillyl alcohol doses in nude mice using an oral bid ×14 day schedule. […] Perillyl alcohol was also administered in PEG400 at the same dose levels.

HT29 cells = test: Protein isoprenylation in HT29 cells; format: cell-based, human
[5] = chronic week 3, 10% LIM or 2% POH diet
[6] = chronic week 5, 10% LIM or 2% POH diet
[7] = chronic week 10, 10% LIM or 2% POH diet

SMILES: C=C(C)[C@@H]1CC=C(CO)CC1 [perillyl alcohol]
- ability to inhibit isoprenylation within test panel (21-26 kDa proteins [1]; 1 mM, 21-26 kDa range): greatest ability to inhibit isoprenylation
- inhibition of isoprenylation in all cases examined (21-26 kDa proteins [1]; all cell types examined): inhibition of isoprenylation
- parent detection in plasma ([2]; acute gavage, any time point including 30 minutes): not detected at any time point including 30 minutes post-gavage
- major metabolite detected ([2]; acute gavage, rat): perillic acid
- perillic and dihydroperillic acids in plasma ([2]; acutely administered, rat): detectable at 24 hours post-administration
- parent compound in plasma ([2]; chronically fed rats): Neither limonene nor perillyl alcohol was detected
- DHPA (% total) ([2]; acute 1 g/kg, 4 hour): 5 % total
- DHPAME (% total) ([2]; acute 1 g/kg, 4 hour): < 1 % total
- LIM/POH (% total) ([2]; acute 1 g/kg, 4 hour): 0 % total
- PA (% total) ([2]; acute 1 g/kg, 4 hour): 71 % total
- PAME (% total) ([2]; acute 1 g/kg, 4 hour): 24 % total
- mM LIM/POH ([2]; acute 1 g/kg, 4 hour, mean ± SEM): 0.00 ± 0.00 mM
- DHPA (% total) [2, 5]: 19 % total
- DHPAME (% total) [2, 5]: 2 % total
- LIM/POH (% total) [2, 5]: 0 % total
- PA (% total) [2, 5]: 69 % total
- PAME (% total) [2, 5]: 10 % total
- mM LIM/POH [2, 5]: 0 mM
- DHPA (% total) [2, 6]: 25 % total
- DHPAME (% total) [2, 6]: 3 % total
- LIM/POH (% total) [2, 6]: 0 % total
- PA (% total) [2, 6]: 62 % total
- PAME (% total) [2, 6]: 10 % total
- mM LIM/POH [2, 6]: 0 mM
- DHPA (% total) [2, 7]: 28 % total
- DHPAME (% total) [2, 7]: 4 % total
- LIM/POH (% total) [2, 7]: 0 % total
- PA (% total) [2, 7]: 59 % total
- PAME (% total) [2, 7]: 10 % total
- mM LIM/POH [2, 7]: 0 mM
- rate of conversion to metabolites ([2]; rat): rapidly metabolized to the same metabolites as limonene; also recorded: more rapidly converted to metabolites than limonene
- major plasma metabolites ([2]; rat, 1 g/kg gavage, 4 hours): perillic acid and dihydroperillic acid
- minor plasma metabolites ([2]; rat, 1 g/kg gavage, 4 hours): minor levels of these acids' methyl esters
- isoprenylation of 21-26 kDa proteins (21-26 kDa proteins [3]): inhibited significantly
- inhibition of cell growth (M600B cells): significantly inhibited cell growth in a dose-dependent manner
- weight loss ([4]; 0.5 g/kg/treatment oral bid, sesame oil): No weight loss
- course of weight loss ([4]; 1.0 gram/kg/treatment oral bid, after day 10): the weight loss leveled off
- average body weight lost ([4]; 1.0 gram/kg/treatment oral bid, diluted 1:1 in sesame oil, day 10): 3 g
- lethality ([4]; in PEG400, same dose levels): Lethality was observed
- differential isoprenylation in HT29 (HT29 cells): differential isoprenylation
